Assay results taken from patent publication US7829552B2, “Phosphorus-containing thyromimetics” (Metabasis Therapeutics, Inc., priority 2003, dated 2010).

Experiments:
ZDF rats [1] = test: Circulating TSH in ZDF rats treated 28 days; format: in vivo, rat; details: 50 mg/kg/d for 28 days
Source text: Another concern with synthetic thyromimetics is the suppression of the endogenous thyroid axis. Thyroid homeostasis is maintained by the action of thyroid releasing hormone (TRH) and thyroid stimulating hormone (TSH). […] Although this particular side effect has been noted, it has typically been treated with less concern than the cardiac safety issues. […] Therefore previous investigators have measured TSH levels when testing synthetic thyromimetics and have used a 30% decrease of TSH as the denominator in their therapeutic index calculations. […] Therefore, both compounds suppress TSH as doses lower than that required to decrease circulating cholesterol. […] However, 0.2 mg/kg/d of Compound 18 in 28 day treated ZDF rats, decreased TSH levels greater than 90%.

isolated rat hepatocytes = test: Activation of prodrug in isolated rat hepatocytes; format: in vitro ADME; details: active species in hepatocytes, 100 μM
Description: Method: Hepatocytes are prepared from fed Sprague-Dawley rats (250-300 g) according to the procedure of Berry and Friend (Berry, M. N., Friend, D. S. J. Cell Biol. 43, 506-520 (1969)) as modified by Groen (Groen, A. K. et al., Eur J. Biochem 122, 87-93 (1982)). Hepatocytes (60 mg wet weight/mL) are incubated in 1 mL Krebs-bicarbonate buffer containing 10 mM glucose, and 1 mg/mL BSA. Incubations are carried out in a 95% oxygen, 5% carbon dioxide atmosphere in closed, 50-mL Falcon tubes submerged in a rapidly shaking water bath (37° C.). Prodrugs are dissolved in DMSO to yield 10 mM stock solutions, and then diluted into the cell suspension to yield a final concentration of 100 μM. At appropriate time points over the course of 1 h, aliquots of the cell suspension are removed and spun through a silicon/mineral oil layer into 10% perchloric acid. The cell extracts in the acid layers are neutralized, and the intracellular prodrug metabolite content analyzed by reverse phase HPLC or LC-MS/MS (Example F). The AUC of the active species in the hepatocytes is calculated from the concentration-time profile of parent compound.

[2] = Liver distribution following oral administration (liver levels of Compound 7 by LC-MS); format: in vivo, rat; details: levels of Compound 7 in liver, 10 mg/kg@1.5 h, normal rats
Description: Liver levels of Compound 7 were assessed in normal rats following oral administration of the HepDirect™ or other prodrugs. The levels were used to estimate potential efficacy. Liver levels were assessed by LC-MS using the 363.3/63.0 peak area to estimate levels of Compound 7 generated by orally administered prodrugs.

[3] = test system: Hypercholesterolemic rats; test: Cholesterol lowering in hypercholesterolemic (cholesterol-fed) rats; format: in vivo, rat
Description: Plasma cholesterol values were assessed prior to and following treatment and the effects of compound were expressed as a percentage change from the pre-dose cholesterol levels. […] Compounds were routinely tested for oral efficacy at a dose of 0.5 mg/kg/d. Hypercholesterolemic rats were treated with vehicle, Compound 13-1-cis (a HepDirect version of Compound 7), Compound 19-1 (a diethyl ester of Compound 19-2), Compound 13-9 (a HepDirect version of Compound 19-2), Compound 12-5 (a bisPom version of compound 19-2), or Compound 15-5 (a bisamidate version of Compound 19-2) at 0.5 mg/kg/d orally. Compound 13-1-cis has been extensively characterized and was used as the positive control for the assay.

cholesterol-fed rat = test: Subacute studies in cholesterol-fed rats, IP once-a-day for seven days: serum cholesterol, heart weight, heart GPDH
Description: The cholesterol-fed rat is an animal model of hypercholesterolemia generated by feeding the animals a diet with high cholesterol content.
Serum cholesterol values were assessed and the animals randomized into groups for treatment.

ZDF rats [4] = test: Liver triglycerides and liver histology in ZDF rats, oral 28 days; format: in vivo, rat
Description: In other experiments, Compound 7 was orally administered to ZDF rats for 28 days. Liver triglycerides were analyzed as described above. Total liver triglycerides were reduced in the treated animals 42% in the 2.5 mg/kg/d group. […] The hepatic steatosis is a well known and described phenomenon for the ZDF rat, and therefore not attributable to vehicle treatment.

ZDF rats [5] = details: rat, in vivo, 28 days
Description: Compound 18 was administered at doses up to 5 mg/kg/d. Compound cis-13-1 was administered at doses up to 50 mg/kg/d. We reasoned that the ZDF rat, as a metabolically challenged animal model, would be more sensitive to the potential adverse cardiac effects of thyromimetics than a normal, cholesterol-fed rat. At sacrifice, heart rate, and the first derivative of left ventricular pressure (LV dP/dt) were measured with a Millar catheter inserted into the left ventricle.

Sprague Dawley (SD) rat = test: Cardiovascular activity of T3 mimetics in the Sprague Dawley rat, oral 7 days; format: in vivo; details: SD rats, p.o. 7 days, Compound cis-13-1 1-50 mg/kg/day
Source text: Method: […] The control group (n=6) was given vehicle only. […] On the 7th day after the start of dosing, animals were anesthetized with Isoflurane and the left ventricle cannulated with a high fidelity catheter tip transducer via the right carotid artery. Left ventricular pressure, its first derivative (LVdP/dt), lead I ECG, and heart rate (HR) triggered off the ECG waveform, were digitally recorded. LV dP/dt is a well accepted measure of ionotropic state. Systolic and diastolic aortic pressures were measured by retracting the catheter into the proximal aorta.

cholesterol fed rats = test: Subacute studies in cholesterol fed rats, PO once a day for seven days: cholesterol reduction, heart weight; format: in vivo, rat; details: 0.6-50 mg/kg/day PO once a day for seven days
Description: Methods: […] Compound 13-1-cis and Compound 18 were administered PO once a day for seven days. Serum TSH is measured using an enzyme immunoassay (EIA) kit designed for rat TSH (Amersham Pharmacia Biotech, Arlington Heights, Ill.). Expression levels of liver genes (e.g., the LDL-receptor, apoB, cpt-1, spot14 and apoA1) and heart genes ([…]^2, Kv1.5, MHCα, MHCβ, Alpha1c) are quantified by Northern blot analysis or by RT-PCR. […] Oligonucleotides specific for the complementary gene sequences are used to make ^32P-labeled probes (Multiprime DNA labeling systems, Amersham Pharmacia Biotech). Following hybridization of the probes to the nylon membranes, radioactivity is assessed on a blue film (Eastman Kodak Co,), and the resulting image quantified using the appropriate software. RT-PCR is performed using an iCycler instrument (Biorad) using appropriate primers by means of standard methodology [[…] et al. (2000) Life Sciences 66: 1683-94]. […] The activities of PEPCK and glucose 6-phosphatase in liver are measured by means of direct enzymatic assays of homogenized liver tissue as described by Andrikopoulos S et al. (1993) Diabetes 42: 1731-1736. Alternatively, expression levels of the corresponding genes are determined by Northern blot analysis or RT-PCR as described above.

[6] = Compound 18 1 mg/kg, vs control
[7] = Compound 18 1 mg/kg, vs vehicle

SMILES | TSH (ZDF rats [1]) | AUC (0-2 h) (isolated rat hepatocytes) | Liver Levels [2] | efficacy in lowering cholesterol ([3]; another experiment, dose and route not given) | serum cholesterol (cholesterol-fed rat; 1-100 mg/kd/day, IP once-a-day for seven days) | therapeutic window (separation between cholesterol lowering and cardiac toxicity) (cholesterol-fed rat; cholesterol-fed rats) | microvesicular steatosis (H&E liver histology) (ZDF rats [4]) | cholesterol lowering ([3]; hypercholesterolemic rats, 0.5 mg/kg/d orally) | TI Improvement, ED15 HR (ZDF rats [5]) | Heart weight (Sprague Dawley (SD) rat; [6]) | heart weight normalized to body weight (Sprague Dawley (SD) rat; [6]) | HR (Sprague Dawley (SD) rat; [7]) | LV dP/dt (Sprague Dawley (SD) rat; [7]) | systolic aortic pressure (Sprague Dawley (SD) rat; [7]) | diastolic aortic pressure (Sprague Dawley (SD) rat; vs vehicle) | serum cholesterol (cholesterol fed rats)
Cc1cc(OCP(=O)(O)O)cc(C)c1Cc1ccc(O)c(C(C)C)c1 [Compound 7, [3,5-dimethyl-4-(4′-hydroxy-3′-iso-propylbenzyl)phenoxy]methylphosphonic Acid] | no statistically significant difference from vehicle | 1371 nmol·h/g | Not Detected | efficacous | significantly decreased serum cholesterol | 10- to 100 fold | dose dependent reduction in the microvesicular steatosis | – | – | – | – | – | – | – | – | –
Cc1cc(OC[P@@]2(=O)OCC[C@@H](c3cccc(Cl)c3)O2)cc(C)c1Cc1ccc(O)c(C(C)C)c1 [Compound 13-1-cis, Cis (S)-2-[(3,5-Dimethyl-4-(4′-hydroxy-3′-iso-propylbenzyl)phenoxy)methyl]-4-(3-Chlorophenyl)-2-oxo-2λ^5-[1,3,2]-dioxaphosphinane] | – | – | – | – | – | – | – | significant lowering of cholesterol | >39 | no significant changes | no significant changes | not significantly different | not significantly different | not significantly different | not significantly different | significantly decreased serum cholesterol
